Data set [1] addresses thrombin (Homo sapiens (Human), UniProt P00734). Put plainly: Thrombin enzymatic assay. The class given is biochemical. On the procedure:
Thrombin enzymatic assay Assays contained 25 pM thrombin (RD systems: 1473-SE-010), 25 uM BOC—PVR-AMC, 100 nL of test compound in 100% DMSO, in at total of 10 μL of 50 mM Tris, pH 7.0, 100 mM NaCl, 10 mM CaCl2, 0.005% Tween20 in black low volume 384-well plates. The production of AMC was followed at 5 min intervals at 355 nm excitation, 460 nm emission in an Envision microplate reader (PerkinElmer). Reaction rates were determined by linear regression of the resulting progress curves. […] Nonlinear regression fits of the data to a one-site dose response curve were performed using XLFit (IDBS).

Data set [2] is described as follows: Metabolic stability in mouse liver microsomes.
Data set [3] concerns the target cathepsin L (Homo sapiens (Human), UniProt P07711). The experiment in a line: Cathepsin L enzymatic assay. In kind it is biochemical. On the procedure: Cathepsin L enzymatic assay Assays contained 25 pM cathepsin L (RD systems: 952-CY-010), 5 uM LR-AMC, 100 nL of test compound in 100% DMSO, in at total of 10 uL of 20 mM KPO4, pH 6.0, 150 mM NaCl, 0.005% Tween20, 5 mM DTT in black low volume 384-well plates. The production of AMC was followed at 5 min intervals at 355 nm excitation, 460 nm emission in an Envision microplate reader (PerkinElmer). Reaction rates were determined by linear regression of the resulting progress curves. […] Nonlinear regression fits of the data to a one-site dose response curve were performed using XLFit (IDBS).

In data set [4] the target is cathepsin B (Homo sapiens (Human), UniProt P07858). The experiment in a line: Cathepsin B enzymatic assay. The class given is biochemical. On the procedure: Cathepsin B enzymatic assay Assays contained 0.6 nM cathepsin B (RD systems: 953-CY-010), 25 uM Z-LR-AMC, 100 nL of test compound in 100% DMSO, in at total of 10 uL of 50 mM MES, pH 5.0, 150 mM NaCl, 0.05% CHAPS, 5 mM DTT in black low volume 384-well plates. The production of AMC was followed at 5 min intervals at 355 nm excitation, 460 nm emission in an Envision microplate reader (PerkinElmer). Reaction rates were determined by linear regression of the resulting progress curves. […] Nonlinear regression fits of the data to a one-site dose response curve were performed using XLFit (IDBS).

Data set [5] relates to SARS-CoV-2 Beta (B.1.351). The experiment in a line: Virus replication in Vero-E6 cells, nucleocapsid immunostaining and high-content imaging, Beta. The class given is cell-based.
In data set [6] the test system is SARS-CoV-2 (WT virus, WA1/2020). The experiment in a line: Virus replication in Vero-E6 cells, alamar blue viability readout. In kind it is cell-based. The conditions noted are these: read-out: EC50 against virus replication.
Data set [7] has as its system SARS-CoV-2 Omicron (B.1.1.529). Put plainly: Virus replication in Vero-E6 cells, nucleocapsid immunostaining and high-content imaging, Omicron. The conditions noted are these: read-out: EC50 against virus replication. In kind it is cell-based.
In data set [8] the test system is SARS-CoV-2 Delta (B.1.617). Put plainly: Virus replication in Vero-E6 cells, nucleocapsid immunostaining and high-content imaging, Delta. In kind it is cell-based. The conditions noted are these: for EC50: read-out: EC50 against virus replication.
Data set [9] deals with SARS-CoV-2 WT (WA1/2020). Put plainly: Virus replication in Vero-E6 cells, nucleocapsid immunostaining and high-content imaging, WT. The class given is cell-based. Conditions: for EC50: WT (WA1/2020), 150× TCID50, 48 h, high-content imaging, read-out: EC50 against virus replication.
In data set [10] the target is SARS-CoV-2 Mpro (Severe acute respiratory syndrome coronavirus 2 (2019-nCoV) (SARS-CoV-2), UniProt P0DTD1). The experiment in a line: biochemical. The class given is biochemical.
Data set [11] in a line: Male hamster pharmacokinetic study, plasma and lung. The conditions noted are these: ip, 10 mg/kg.
Protocol: (§1) The compound was administered as a single dose at 10 mg/kg via intraperitoneal injection formulated in 10% DMSO/10% Solutol® HS15/PBS at 2 mg/mL (FIG. 7).
For data set [12] the following is noted: hamster, in vivo, ip, 10 mg/kg.
Protocol: as §1
Setting [13] is: Severe acute respiratory syndrome coronavirus 2, Vero C1008, 48 h.
[14] abbreviates: Severe acute respiratory syndrome coronavirus 2, Vero C1008, 96 h, WT (WA1/2020), 96 h, alamar blue viability.
Setting [15] is: WT (WA1/2020), 96 h, alamar blue viability.

Like-named read-outs stand apart in the source and are kept apart here. Bounds are passed on as bounds.

cathepsin L, sequence (P07711 114-333): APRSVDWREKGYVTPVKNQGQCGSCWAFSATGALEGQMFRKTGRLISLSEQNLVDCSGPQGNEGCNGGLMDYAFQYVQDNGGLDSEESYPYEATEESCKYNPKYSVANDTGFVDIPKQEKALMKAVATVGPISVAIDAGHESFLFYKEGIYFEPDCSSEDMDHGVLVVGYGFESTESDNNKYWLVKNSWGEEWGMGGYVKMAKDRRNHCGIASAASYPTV

Take `O=C(CN1C(=O)[C@@H](NC(=O)c2ccccc2)COc2ccccc21)N[C@@H](C[C@@H]1CCNC1=O)C(=O)COC(=O)c1c(Cl)cccc1Cl` [AP-8-011, (S)-3-(2-((S)-3-benzamido-4-oxo-3,4-dihydrobenzo[b][1,4]oxazepin-5(2H)-yl)acetamido)-2-oxo-4-((S)-2-oxopyrrolidin-3-yl)butyl 2,6-dichlorobenzoate]: the IC50 in data set [1] was more than 32000 nM; in data set [3] (read-out: CatL IC50), more than 32000 nM; in data set [4] (read-out: CatB IC50), 13000 nM. This molecule displayed a half-life in data set [2] of less than 2 min.

Turning to `CC(C)C[C@H](NC(=O)OCc1ccccc1)C(=O)N[C@@H](C[C@@H]1CCNC1=O)C(O)S(=O)(=O)O` (stereo partly drawn) [GC-376], the EC50 worked out at 290 nM in data set [5] (Severe acute respiratory syndrome coronavirus 2, Vero C1008, 48 h, read-out: EC50 against virus replication); 2050 nM in [6] (Severe acute respiratory syndrome coronavirus 2, Vero C1008, 96 h); 360 nM in data set [7] (setting [13]); 640 nM in data set [8] (setting [13]); 270 nM in data set [9] (setting [13]).

For `COc1cccc2[nH]c(C(=O)N[C@@H](CC(C)C)C(=O)N[C@@H](C[C@@H]3CCNC3=O)C(=O)COC(=O)c3c(Cl)cccc3Cl)cc12` [AP-8-001, reference compound], the half-inhibitory concentration (IC50) is more than 10000 nM in [1], 11 nM in data set [10], 1.8 ± 0.27 nM in data set [3] (read-out: CatL IC50) and 24 ± 7.5 nM in data set [4] (read-out: CatB IC50). For the same molecule, the 50% effective concentration (EC50) in data set [6] (setting [14]) was 1970 nM. Further, the half-life in data set [2] was less than 2 min. Besides, the “incubation time to achieve maximum inhibition” value in [10] is recorded as not above 10 min.

On to `CC(C)(C)[C@H](NC(=O)C(F)(F)F)C(=O)N1C[C@H]2[C@@H]([C@H]1C(=O)N[C@H](C#N)C[C@@H]1CCNC1=O)C2(C)C` [PF07321332], for which the EC50 is 1570 nM in data set [6] (setting [15]), 440 nM in data set [7], 330 nM in data set [8] and 380 nM in data set [9].

In the case of `N[C@H]1COc2ccccc2N(CC(=O)N[C@@H](C[C@@H]2CCNC2=O)C(=O)COC(=O)c2c(Cl)cccc2Cl)C1=O.O=C(O)C(F)(F)F` [AP-9-055, (S)-3-(2-((S)-3-amino-4-oxo-3,4-dihydrobenzo[b][1,4]oxazepin-5(2H)-yl)acetamido)-2-oxo-4-((S)-2-oxopyrrolidin-3-yl)butyl 2,6-dichlorobenzoate 2,2,2-trifluoroacetate], the half-life in [2] is less than 2 min.

For the molecule `O=C(CN1C(=O)[C@@H](NC(=O)OCc2ccccc2)COc2ccccc21)N[C@@H](C[C@@H]1CCNC1=O)C(=O)COC(=O)c1c(Cl)cccc1Cl` [AP-8-013, (S)-3-(2-((S)-3-(benzyloxycarbonylamino)-4-oxo-3,4-dihydrobenzo[b][1,4]oxazepin-5(2H)-yl)acetamido)-2-oxo-4-((S)-2-oxopyrrolidin-3-yl)butyl 2,6-dichlorobenzoate], the “reducing viral load (percent infected live cells)” value was “effective” in data set [5]; “effective” in [8]; “effective” in [9] (WT (USA-WA1/2020), 50× TCID50, 48 h, FIG. 6). The 50% inhibitory concentration (IC50) in [1] was more than 32000 nM; in data set [3] (read-out: CatL IC50), more than 32000 nM; in data set [3] (read-out: Cathepsin L IC50), more than 15000 nM; in data set [4] (read-out: CatB IC50), 18000 nM; in [4] (read-out: Cathepsin B IC50) it was more than 15000 nM. The EC50 was less than 10000 nM in [6] (setting [14]) and 7250 nM in data set [6] (setting [15]). In [2], this molecule yielded a half-life of less than 2 min. In data set [10], the “incubation time to achieve maximum inhibition” value is 60 to 120 min. Further, the Kp in [11] was determined as 3.2. Besides, in data set [12], the “clinical symptoms during the in-life phase” value is listed as “no abnormal clinical symptoms”. In [12] (male), the lung concentration achieved entry is listed as “about 8 μM”.
